Assay results published in patent publication US8974793B2, “Methods and systems for inducing immunologic tolerance to non-self antigens” (The Governors Of The University Of Alberta, priority 2008, dated 2015).

Assay: Blood plasma stability of A type I antigen functionalized silica-coated stainless steel (modified ELISA readout)
Format: in vitro ADME, pig
Details: I-14 bound to silica-coated stainless steel, 12 days agitation
Experimental: Several silica-coated stainless steel samples bearing the A type I antigen were prepared, according to the general procedure defined above. Each of the samples was placed in three different types of pig blood plasma (blood group O, blood group A and commercial pooled blood group O plasma). The samples were agitated on a shaker table for 12 days. After 12 days, the samples were removed from the pig blood plasma and placed in ethanol.
Each silica-coated stainless steel stent surface was treated with a solution of 2% BSA in PBST (200 μL) and shaken (14 h, 5° C.). The surface was then removed and then incubated with mouse anti-A IgM antibodies (5° C., 14 h, 0.023 mg/mL, 50 μL). The surface was then removed, thoroughly washed with PBST and then treated with a secondary HRP conjugated goat anti-mouse IgM antibody (21° C., 3 h, 0.013 mg/mL, 50 μL). The surface was thoroughly washed with PBST to remove unbound antibody and then treated with a solution of SigmaFast OPD (200 μL, 1 h). An aliquot of this solution (100 μL) was then taken and the absorbance measured at 450 nm.

Measured: attachment of antigen to silica-coated stainless steel after plasma incubation (modified ELISA, anti-A IgM, absorbance 450 nm)

CO[Si](CCCSCCCCCCCCO[C@@H]1O[C@H](CO)[C@@H](O)[C@H](O[C@@H]2O[C@H](CO)[C@H](O)[C@H](O[C@H]3O[C@H](CO)[C@H](O)[C@H](O)[C@H]3NC(C)=O)[C@H]2O[C@@H]2O[C@@H](C)[C@@H](O)[C@@H](O)[C@@H]2O)[C@H]1NC(C)=O)(OC)OC [I-14, 8-(3-(trimethoxysilyl)propylthio)octan-1-yl 2-N-Acetyl-3-O-(3-O-(2-N-acetyl-2-deoxy-α-D-galactopyranosyl)-2-O-(α-L-fucopyranosyl)-β-D-galactopyranosyl)-2-deoxy-β-D-glucopyranoside]
confirming the attachment: pig A blood plasma | pig O blood plasma | pig-pooled O blood plasma
